From patent publication US20240252463A1, “METHODS OF TREATING FIBROTIC PATHOLOGIES” (Mayo Foundation for Medical Education and Research, priority 2018, published 2024)

Tests used:
Format in all cases: cell-based, human
[1] = system: hepatic stellate cells (HSCs); test: Western blot of αSMA and Fibronectin in TGFβ-stimulated hepatic stellate cells; conditions: TGFβ 48 hours +/- DHX 10 μM
Experimental: FIGS. 10A-10D DHX reverses hepatic stellate cell activation and in vivo hepatic fibrosis. 10a. DRD1 is preferentially expressed in cultured human hepatic stellate cells (HSCs): ACTA2, PDGFRA positive, relative to cultured human hepatocytes (Heps): ALB positive. N=1. 10b. DHX inhibits TGFβ-mediated hepatic stellate cell activation in vitro. HSCs were stimulated with TGFβ for 48 hours+/−DHX (10 μM) prior to total protein isolation and western blot analysis of αSMA and Fibronectin. N=3 (***p<0.001, **p<0.01, *p<0.05 vs. Control+TGFβ). 10c. DHX reverses Bile duct ligation (BDL) mediated fibrosis in vivo measured by trichrome staining, and 10d. hydroxyproline. Sham Control N=5, BDL Control N=7, and BDL DHX N=8 (**p<0.01 vs. BDL Control).
Western Blotting: Cells were plated in EMEM containing 10% FBS overnight. Media was exchanged with EMEM containing 0.1% FBS for 24 hours. Prior to protein isolation cells were treated with the indicated concentration of compounds for the indicated time. Total protein was isolated using RIPA buffer (pH 8.0) containing Pierce Phosphatase Inhibitor (Thermo) and Halt Protease Inhibitor Cocktail (Thermo). Lysate total protein concentration was determined using Pierce BCA Protein Assay Kit (Thermo) and samples were run on a 10% polyacrylamide gel. […] Plates were imaged via a Li-Cor OdysseyXL system with quantification performed via densitometry.

[2] = system: Collagen I and Fibronectin; test: Immuno-ECM: TGFβ-stimulated accumulation of collagen I and fibronectin; conditions: IPF patient-derived fibroblasts, TGFβ 48 hours then DHX 24 hours
Experimental: Immuno-ECM: Adapting from previously published methods, IPF patient-derived fibroblasts were plated to confluence in clear-bottom 96-well plates. After cells attached, the medium was swapped for EMEM containing 0.1% FBS+2 ng/mL TGF-β. After 48 hours the indicated concentration of DHX or DMSO control was added to each well and incubated for 24 hours. WST-1 viability reagent was added to each well (Sigma-Aldrich) and measured on a Flexstation 3 (Molecular Devices) plate reader. Cells were then fixed in 3.7% formalin (Sigma-Aldrich), and permeabilized in 0.25% Triton X-100 (Sigma-Aldrich). Wells were washed with tris-buffered saline (TBS) and blocked with Li-Cor Odyssey Blocking Buffer for 60 minutes before overnight incubation in a polyclonal rabbit antibody for fibronectin (Sigma sc-9068) or collagen I (Novus NB600-408) diluted 1:200 in blocking buffer. Wells were washed with TBS-Tween before 45 minute incubation with IR-dye-conjugated secondary antibody (Li-Cor #926-32211) diluted 1:400. Plates were imaged via a Li-Cor OdysseyXL system with quantification performed via densitometry. Data are expressed as IR intensity relative to WST-1 signal absorbance in order to account for any potential compound toxicity.

[3] = system: IPF patient derived fibroblasts; test: Traction Force Microscopy of IPF patient derived fibroblasts; conditions: IPF fibroblasts on 6.4 kPa matrices
Experimental: Traction Force Microscopy: Traction analysis was conducted as previously described. Briefly, polyacrylamide substrates with shear moduli of 6.4 kPa were prepared, and fluorescent sulfate-modified latex microspheres (0.2 μm, 505/515 ex/em) (FluoSpheres, Life Technologies) were conjugated to the gel surfaces after treatment with 1 mg ml^−1 of dopamine hydrochloride (Sigma-Aldrich) in 50 mM HEPES solution (pH 8.5). IPF patient derived fibroblasts were plated on the gels overnight and treated as indicated before traction force measurements. Images of gel surface-conjugated fluorescent beads were acquired for each cell before and after trypsinization using a Nikon ECLIPSE Ti microscope at ×10 magnification. Traction forces were estimated by measuring bead displacement fields and computing corresponding traction fields using TractionsForAll (freely distributed program that calculates 2-D tractions exerted by an adherent cell on its substrate).

[4] = system: YAP/TAZ; test: YAP/TAZ nuclear localization in IMR-90 and other mesenchymal cells (cardiac, dermal fibroblasts, hepatic stellate cells); conditions: FIG. 37B

`Oc1cc2c(cc1O)[C@H]1c3ccccc3CN[C@@H]1CC2` (racemic) [Dihydrexidine, dihydrexidine] was tested, and the “TGFβ-mediated HSC expression of SMA and FN protein” value [1] was “significant reversal of both”, the “TGFβ-stimulated accumulation of collagen I and fibronectin” value [2] was “dose-dependently reversed” and the “contractile forces (traction force microscopy)” value [3] was “significantly and dose-dependently reduced the contractile forces”. For the same compound, the “YAP/TAZ nuclear localization in mesenchymal cells derived from uterine fibroids” value [4] was “marginal inhibition of YAP/TAZ nuclear localization”.
